From patent publication US7232828B2, “PPAR Ligands that do not cause fluid retention, edema or congestive heart failure” (Bethesda Pharmaceuticals, Inc., priority 2002, dated 2007)
Entries after “also recorded” stand apart in the source; their conditions may differ. Read-outs that look alike come from different tables or passages of the source.

How the values were obtained:
[1] = molecular target: T1, PPARγ (Homo sapiens, UniProt P37231); experiment: PPARγ transactivation assay in transfected CV-1 cells (luciferase reporter); assay type: cell-based; conditions: for Activation of PPARγ (in words): at doses reasonably achievable at therapeutic doses
T1 construct: expressed in transfected cells; host or cells: CV-1 cells (CCL-70, ATCC)
T1 sequence (P37231 1-505): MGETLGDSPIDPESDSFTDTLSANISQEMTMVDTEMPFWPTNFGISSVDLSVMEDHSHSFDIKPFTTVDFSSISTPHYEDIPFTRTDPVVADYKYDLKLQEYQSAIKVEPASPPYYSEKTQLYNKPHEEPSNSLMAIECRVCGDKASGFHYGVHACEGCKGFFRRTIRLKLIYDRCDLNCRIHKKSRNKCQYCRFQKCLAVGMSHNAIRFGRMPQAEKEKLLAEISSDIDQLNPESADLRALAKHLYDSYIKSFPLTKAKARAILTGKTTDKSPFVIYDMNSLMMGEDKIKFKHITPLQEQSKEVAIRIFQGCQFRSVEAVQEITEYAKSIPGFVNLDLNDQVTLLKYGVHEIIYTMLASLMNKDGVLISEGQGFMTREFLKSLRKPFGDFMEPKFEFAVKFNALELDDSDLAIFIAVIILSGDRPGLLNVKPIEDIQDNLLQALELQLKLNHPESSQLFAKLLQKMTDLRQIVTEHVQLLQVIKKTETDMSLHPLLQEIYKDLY
Procedure: ARBs, or derivatives thereof, may be tested for their ability to activate the various PPAR isoforms by utilizing standard screening methods known to those skilled in the art including but not limited to cell based transactivation assays or cell free assays that test the ability of a compound to activate a PPAR construct by measuring the output of a reporter signal that reflects the extent of the PPAR activation. For example, the angiotensin receptor blocker telmisartan is added to the culture media of CV1 cells or other cells that can be transfected with a full length or partial PPAR cDNA sequence together with a reporter construct containing a PPAR response element or other appropriate response element fused to a reporter gene such as luciferase. […] Cell extracts were assayed for luciferase and β-galactosidase activity using Promega (Madison, Wis.) assay systems. All treatments were performed in triplicate, and normalized for β-galactosidase activity. Agonist concentrations yielding half maximal activation (EC50 values) were calculated using GraphPad Prism version 3.03 (GraphPad Software, Inc., San Diego, Calif.).

[2] = tested on: mouse preadipocyte cell line (3T3-L1); experiment: In vitro adipocyte differentiation (adipogenesis) activity; assay type: cell-based
Procedure: The following examples 2 and 3 provide a generic means to measure adipocyte differentation to determine if one has an insulin-sensitizing agent. […] The cells are then plated at 1.5×10^4/cm^2 in a 96-well tissue culture plate (view plate, 96 white, Packard) coated with type 1 collagen. […] The compounds added from a stock solution of dimethyl sulfoxide (DMSO). […] DMSO (0.1%) was added to the control cultures. The medium was replaced with maintenance medium (DMEM supplemented with 5% of FBS and 100 ng/mL of insulin), and the cells cultured for 2 more days. Activity of stimulation of adipogenesis was determined by exposure of the cells to [14-C]-acetic acid (7.4 kBq/mL), and uptake of [14-C]-acetic acid monitored after 1 h of incubation. The medium is discarded and the cells washed twice with phosphate-buffered saline. The cells are air-dried, and […] of scintillation cocktail (Microscint-20, Packard) added to the wells, and counted with a Packard TopCount microplate scintillation counter.

[3] = tested on: human preadipocytes; conditions: high concentrations; cited from earlier work
[4] = obese Zucker rat, oral, extremely high dose; cited from earlier work
[5] = patients with mild hypertension; cited from earlier work
[6] = assay type: in vivo, human
From the text: Insulin resistance is defined as a state in which circulating insulin levels in excess of the normal response to a glucose load are required to maintain the euglycemic state (Ford ES, et al. JAMA. (2002) 287:356-9). Insulin resistance, and the response of a patient with insulin resistance to therapy, may be quantified by assessing the homeostasis model assessment to insulin resistance (HOMA-IR) score, a reliable indicator of insulin resistance (Katsuki A, et al. Diabetes Care 2001;24:362-5). The estimate of insulin resistance by the homeostasis assessment model (HOMA)-IR score is calculated with the formula (Galvin P, et al. Diabet Med 1992;9:921-8): HOMA-IR=[fasting serum insulin (μU/mL)]×[fasting plasma glucose (mmol/L)/22.5]
A person with the metabolic syndrome was selected for therapy. […] The patient has the metabolic syndrome as defined by the National Cholesterol Education Program. The metabolic syndrome is associated with a 5-9 fold increase in the risk for developing type 2 diabetes and a 2-3 fold increase risk in cardiovascular mortality.

[7] = Clinical trial in a patient with osteoarthritis and inflammation (elevated CRP); assay type: in vivo, human; conditions: for Serum CRP level: baseline 7.9
From the text: A person with osteoarthritis and inflammation as judged by elevated C-reactive protein (CRP) levels was selected for therapy.

[8] = Clinical trial in a patient with hypertension, hypertriglyceridemia and type 2 diabetes
[9] = conventional oral dosing; cited from earlier work
[10] = 160 mg/day oral, after seven weeks

CCCCc1ncc(/C=C(\Cc2cccs2)C(=O)O)n1Cc1ccc(C(=O)O)cc1 [eprosartan]
Activation of PPARγ (in words) [1]: do not activate PPARγ | Promotion of adipogenesis (in words) [2]: did not promote adipogenesis

CCCCC1=NC2(CCCC2)C(=O)N1Cc1ccc(-c2ccccc2-c2nnn[nH]2)cc1 [irbesartan]
Adipogenesis [3]: can enhance adipogenesis | Activation of PPARγ / luciferase reporter gene activity (in words) [1]: can activate PPARγ; also recorded: found to activate PPARgamma | PPARγ activation (fold activation) ([1]; tested at 10 μM, CV-1 cells): 2-3 fold | Insulin sensitivity [4]: improved insulin sensitivity | Lipid levels [4]: failed to improve lipid levels

CCCCc1nc(Cl)c(CO)n1Cc1ccc(-c2ccccc2-c2nn[nH]n2)cc1 [losartan]
Effect on glucose metabolism, insulin sensitivity, and serum concentrations [5]: neutral effect

CCCc1nc2c(C)cc(-c3nc4ccccc4n3C)cc2n1Cc1ccc(-c2ccccc2C(=O)O)cc1 [telmisartan]
Diagnostic criteria of the metabolic syndrome (NCEP) ([6]; 80 mg/day oral, after two weeks): no longer meets the diagnostic criteria of the metabolic syndrome | Fasting glucose ([6]; 80 mg/day oral, after two weeks, baseline 118): 105 mg/dL | Fasting triglyceride level ([6]; 80 mg/day oral, after two weeks, baseline 129): 115 mg/dL | Blood pressure ([6]; 80 mg/day oral, after two weeks, baseline 160/79): 130/69 | Insulin resistance as determined by HOMA-IR score (in words) ([6]; patient with the metabolic syndrome): improved insulin resistance | Serum CRP level ([7]; 80 mg/day oral, after 6 weeks): 4.1 mg/L | Symptoms of inflammation and osteoarthritis ([7]; 80 mg/day oral, after 9 weeks): stabilized | Serum CRP level ([7]; 80 mg/day oral, after 9 weeks): 3.9 mg/L | Fluid retention, peripheral edema, pulmonary edema, congestive heart failure on clinical examination ([7]; osteoarthritis patient, 80 mg/day): no evidence of any increase in fluid retention, peripheral edema, pulmonary edema, or congestive heart failure | Activation of PPARγ / luciferase reporter gene activity (in words) [1]: can activate PPARγ; also recorded: significant increase in reporter gene activity | EC50 [1]: 5.6 µM | PPARγ activation relative to maximum level of activity achieved by full agonists pioglitazone and rosiglitazone ([1]; CV-1 cells): 25%-30% | PPARγ activation (fold) ([1]; tested at 1-5 μM, CV-1 cells, 24 hr): 5-8 fold | HDL cholesterol ([8]; 80 mg/day oral, after three weeks, baseline 48): 50 mg/dL | Blood pressure ([8]; 80 mg/day oral, after three weeks, baseline 160/90): 143/91 | Fasting glucose ([8]; 80 mg/day oral, after three weeks, baseline 183): 188 mg/dL | Triglyceride ([8]; 80 mg/day oral, after three weeks, baseline 264): 281 mg/dL | Blood pressure [8, 10]: 131/81 | Glucose level [8, 10]: 145 mg/dL | HDL cholesterol [8, 10]: 60 mg/dL | Triglyceride level [8, 10]: 178 mg/dL | Blood HDL-cholesterol (in words) ([8]; patient with type 2 diabetes): elevated blood HDL-cholesterol | Hyperglycemia (in words) ([8]; patient with type 2 diabetes): lowered the hyperglycemia | Plasma triglycerides (in words) ([8]; patient with type 2 diabetes): lowers plasma triglycerides | Fluid retention, peripheral edema, pulmonary edema, congestive heart failure on clinical examination ([8]; type 2 diabetes patient, 160 mg/day): no evidence of any increase in fluid retention, peripheral edema, pulmonary edema, or congestive heart failure | Promotion of adipogenesis (in words) [2]: promote adipogenesis | Concentrations that can be achieved in plasma [9]: 1000 to 5000 nM

CCCCC(=O)N(Cc1ccc(-c2ccccc2-c2nnn[nH]2)cc1)[C@H](C(=O)O)C(C)C [valsartan]
Activation of PPARγ (in words) [1]: do not activate PPARγ | Promotion of adipogenesis (in words) [2]: did not promote adipogenesis
